What was measured:
Assay in all cases: fluorogenic AFC peptide substrate assay
Format in all cases: biochemical
[1] = biological target: T1, human Casp5 (Homo sapiens, UniProt P51878); conditions: 10 µM Ac-WEHD-AFC, pH 7.2, 37 °C, 10 mM DTT
T1 construct: recombinant caspase, commercial (BioVision)
T1 sequence (P51878 137-327): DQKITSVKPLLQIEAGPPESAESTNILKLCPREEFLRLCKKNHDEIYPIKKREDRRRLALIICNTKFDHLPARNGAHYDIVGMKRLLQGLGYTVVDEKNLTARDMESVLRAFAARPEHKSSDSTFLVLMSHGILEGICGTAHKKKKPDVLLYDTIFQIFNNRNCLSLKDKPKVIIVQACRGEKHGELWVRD
T1 sequence (P51878 347-434): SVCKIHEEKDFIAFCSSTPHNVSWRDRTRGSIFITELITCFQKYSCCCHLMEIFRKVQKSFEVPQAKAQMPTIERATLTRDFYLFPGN

[2] = biological target: T2, human Casp9 (Homo sapiens, UniProt P55211); conditions: 10 µM Ac-LEHD-AFC, pH 7.2, 37 °C, 10 mM DTT
T2 construct: recombinant caspase, commercial (BioVision)
T2 sequence (P55211 1-315): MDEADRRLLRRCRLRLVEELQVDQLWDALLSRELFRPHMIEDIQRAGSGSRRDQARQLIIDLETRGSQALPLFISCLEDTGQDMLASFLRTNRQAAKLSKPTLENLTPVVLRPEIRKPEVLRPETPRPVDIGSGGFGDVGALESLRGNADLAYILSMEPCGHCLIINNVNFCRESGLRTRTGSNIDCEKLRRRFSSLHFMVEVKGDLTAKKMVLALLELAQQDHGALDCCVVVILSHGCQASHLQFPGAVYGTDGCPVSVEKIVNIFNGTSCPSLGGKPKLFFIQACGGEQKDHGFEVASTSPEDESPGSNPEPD
T2 sequence (P55211 331-416): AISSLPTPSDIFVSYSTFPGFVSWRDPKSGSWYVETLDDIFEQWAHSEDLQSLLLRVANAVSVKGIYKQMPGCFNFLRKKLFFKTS

[3] = biological target: T3, human Casp1 (Homo sapiens, UniProt P29466)
T3 construct: recombinant caspase, commercial (BioVision)
T3 sequence (P29466 120-297): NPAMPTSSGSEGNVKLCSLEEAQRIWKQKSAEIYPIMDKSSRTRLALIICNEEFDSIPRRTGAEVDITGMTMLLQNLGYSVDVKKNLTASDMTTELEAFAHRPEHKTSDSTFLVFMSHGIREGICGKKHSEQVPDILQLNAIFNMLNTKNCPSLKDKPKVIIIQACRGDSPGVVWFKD
T3 sequence (P29466 317-404): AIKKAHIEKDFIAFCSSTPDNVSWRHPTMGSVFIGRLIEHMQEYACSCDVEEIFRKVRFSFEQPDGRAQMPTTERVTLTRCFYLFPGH

[4] = biological target: T4, mouse recombinant Casp1 (Mus musculus, UniProt P29452)
T4 construct: recombinant caspase, commercial
T4 sequence (P29452 119-296): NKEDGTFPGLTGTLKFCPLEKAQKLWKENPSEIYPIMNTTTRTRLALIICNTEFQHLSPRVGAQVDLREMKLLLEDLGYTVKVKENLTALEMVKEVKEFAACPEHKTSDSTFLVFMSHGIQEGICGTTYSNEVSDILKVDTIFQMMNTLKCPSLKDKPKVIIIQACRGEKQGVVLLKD
T4 sequence (P29452 315-402): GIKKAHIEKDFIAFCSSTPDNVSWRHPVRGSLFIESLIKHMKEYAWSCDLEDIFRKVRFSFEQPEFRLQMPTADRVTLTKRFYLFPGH

[5] = biological target: T5, human Casp10 (Homo sapiens, UniProt Q92851); conditions: 10 µM Ac-IETD-AFC, pH 7.2, 37 °C, 10 mM DTT
T5 construct: recombinant caspase, commercial (BioVision)
T5 sequence (Q92851 220-415): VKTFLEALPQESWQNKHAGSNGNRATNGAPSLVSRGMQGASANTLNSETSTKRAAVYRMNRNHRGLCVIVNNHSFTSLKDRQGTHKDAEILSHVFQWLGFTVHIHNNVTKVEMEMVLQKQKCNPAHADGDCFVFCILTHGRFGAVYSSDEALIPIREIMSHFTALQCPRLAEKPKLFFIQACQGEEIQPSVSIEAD
T5 sequence (Q92851 416-521): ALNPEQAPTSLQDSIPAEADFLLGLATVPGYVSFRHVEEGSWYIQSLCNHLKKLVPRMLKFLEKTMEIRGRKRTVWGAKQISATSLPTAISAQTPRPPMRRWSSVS

[6] = biological target: T6, human Casp8 (Homo sapiens, UniProt Q14790); conditions: 10 µM Ac-IETD-AFC, pH 7.2, 37 °C, 10 mM DTT
T6 construct: recombinant caspase, commercial (BioVision)
T6 sequence (Q14790 217-374): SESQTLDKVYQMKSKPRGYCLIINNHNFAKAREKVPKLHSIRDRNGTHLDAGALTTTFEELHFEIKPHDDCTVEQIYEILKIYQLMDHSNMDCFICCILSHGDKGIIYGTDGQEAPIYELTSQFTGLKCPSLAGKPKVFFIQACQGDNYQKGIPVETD
T6 sequence (Q14790 385-479): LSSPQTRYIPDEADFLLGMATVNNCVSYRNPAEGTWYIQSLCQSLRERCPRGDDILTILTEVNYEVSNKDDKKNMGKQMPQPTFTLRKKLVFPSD

SMILES	IC50 [1]	IC50 [2]	IC50 [3]	IC50 [4]	IC50 [5]	IC50 [6]
CC(C)(C)[C@H](NC(=O)c1ccc(N)c(Cl)c1)C(=O)N1CCC[C@H]1C(=O)N[C@H](C=O)CC(=O)O [VRT-043198]	Casp5, Casp8, Casp9 and Casp10, which were inhibited in the nanomolar range in vitro	Casp5, Casp8, Casp9 and Casp10, which were inhibited in the nanomolar range in vitro	9.91 nM	18 nM	Casp5, Casp8, Casp9 and Casp10, which were inhibited in the nanomolar range in vitro	Casp5, Casp8, Casp9 and Casp10, which were inhibited in the nanomolar range in vitro
CCO[C@@H]1OC(=O)C[C@@H]1NC(=O)[C@@H]1CCCN1C(=O)[C@@H](NC(=O)c1ccc(N)c(Cl)c1)C(C)(C)C [VX-765]	Casp5, Casp8, Casp9 and Casp10, which were inhibited in the nanomolar range in vitro	Casp5, Casp8, Casp9 and Casp10, which were inhibited in the nanomolar range in vitro	–	–	Casp5, Casp8, Casp9 and Casp10, which were inhibited in the nanomolar range in vitro	Casp5, Casp8, Casp9 and Casp10, which were inhibited in the nanomolar range in vitro
